# Measurements taken from US12071469B2, “Peptide compounds for suppressing inflammation” (Duke University, priority 2011, dated 2024).
# “Also recorded” adds a separate entry of the source.
# Tests used:
# [1] = test system: primary rat neuronal cortical culture exposed to NMDA; assay: Neuroprotection from NMDA mediated cell death in primary neuronal culture (LDH release); type: cell-based; conditions: for reduced LDH release: concentration not given
# Procedure: Peptides of 5 amino acids in length were applied to one or more samples of cells in parallel at concentrations ranging from about 0 to about 50 μM, such as 0.3, 3, and 30 μM. The peptides AL-10-1 (SEQ ID NO:18) and VL-17-9 (SEQ ID NO:19), which are longer peptides (12 amino acids each) were used as negative and positive controls, respectively. A series of peptides were screened in primary rat neuronal cortical culture exposed to NMDA using the method described in Aono et al., Neuroscience (2003) 116:437 and Aono et al., Neurobiology of Disease (2002) 11:214, both of which are incorporated by reference in their entirety (see Table 2). Neuroprotection from NMDA mediated cell death in primary neuronal culture was expressed as percentage decrease in LDH, 24 hours after exposure to NMDA compared to vehicle treated cultures (Table 2). LDH release is indicative of neuronal death after NMDA exposure. The peptide VR-55 (SEQ ID NO:4) reduced NMDA mediated excitotoxic cell death by approximately 19% at a concentration of 1 μM. […] The positive control peptide VL-17-9 reduced LDH release by 31%.
# Dose response of the neuroprotection from NMDA excitotoxicity in primary neuronal culture was determined for ApoE mimetic peptide VR-55 (SEQ ID NO: 4). […] “0” indicates less than 5% suppression; “+” indicates 5-10% suppression; “++” indicates 11-20% suppression; and “+++” indicates greater than 20% suppression. In addition to VL-17-9, several other candidates had greater than 20% suppression, including VR-55, VL-5-1, VL-5-2 and VR-52.
# [2] = test system: mixed glial primary culture; assay: Suppression of TNF-α release in mixed glial primary culture after exposure to LPS; type: cell-based, murine; conditions: FIGS. 11A and 11B
# Procedure: (§1) In vitro methods have been developed using cultured cells for evaluating the ability of a compound, such as a peptide, to suppress glial activation. Laskowitz et al., (2001) Exp. Neurol., 167:74-85. Glial cell cultures were grown and maintained under standard conditions. Cultured glial cells may include primary murine mixed glial cell cultures, murine BV-2 microglial cells, and human C3 microglial cells. Adherent glial cells were washed with OptiMEM® medium (available from Invitrogen Corp.) to remove serum and covered with fresh OptiMEM® medium containing peptide.
# Larger peptides or proteins may need to be tested at higher concentrations to observe measurable suppression of glial activation. If using primary murine cells and BV-2 cells, cells are stimulated with 100 ng/ml E. coli LPS (available from Sigma-Aldrich Co.), and supernatant is collected six hours after LPS stimulation and assayed for nitrite (using a colorimetric Griess reagent system, available from Promega Corp.) and/or TNF-α (using a solid-phase ELISA kit, available from Invitrogen Corp.). If using human C3 cells, cells are stimulated with 200 μg/ml polyinosinic acid 5′ (available from Sigma-Aldrich Co.), and supernatant is collected 5 days after stimulation and assayed for TNF-α using a solid-phase ELISA kit (available from Invitrogen Corp.).
# The protective activity against brain injury-downregulating CNS inflammatory response was determined for ApoE mimetic peptides, VR-55 (SEQ ID NO: 4), VL-5-1 (SEQ ID NO: 5) and VL-5-3 (SEQ ID NO: 10).
# [3] = test system: BV-2 murine microglial cells; assay: Suppression of LPS-stimulated TNF-α production in BV-2 microglial cells (ELISA); type: cell-based; conditions: peptide 0.3, 3 or 30 μM; LPS 100 ng/mL, six hours; FIG. 1; listed as SEQ ID NO:3
# Procedure: Cultured BV-2 murine microglial cells were incubated with either the indicated concentrations of peptide (SEQ ID NO:3) or a negative control peptide (SEQ ID NO:13) and stimulated with lipopolysaccharide (LPS) (100 ng/mL) for six hours. After six hours, supernatants were harvested and the concentration of secreted TNF-α was measured by ELISA (**p<0.01; ANOVA).
# as §1
# Larger peptides or proteins may need to be tested at higher concentrations to observe measurable suppression of glial activation. […]
# Murine BV-2 cultures were prepared and used to evaluate suppression of microglial activation as described in Example 1. […] Each sample was stimulated with LPS and assessed for TNF-α production as described in Example 1.
# [4] = test system: mice with traumatic brain injury; assay: Rotorod vestibulomotor function after traumatic brain injury; type: in vivo, mouse; conditions: 0.05 mg/kg or 0.2 mg/kg iv at 2 h and 6 h after traumatic brain injury
# Procedure: An experimental murine model for traumatic brain injury was developed. Laskowitz, et al. (2010) J. Neurotrauma, 27:1983-95. Male mice (age 12-14 weeks) were anesthetized with 4.3% isoflurane in oxygen in an anesthesia induction box for 90 seconds. The trachea was intubated and the lungs mechanically ventilated with 1.4% isoflurane in a 50/50 mixture of oxygen and nitrogen. Body temperature was maintained at 37° C. using surface heating/cooling. The top of the skull was exposed by a midline incision to identify anatomical landmarks, and a concave 3-mm metallic disc was secured to the skull surface with an adhesive, directly midline and just caudal to the bregma. The disc diffused the energy of impact and reduced the incidence of depressed skull fracture to less than 10%. After general anesthesia, mice were positioned in a stereotactic device and the skull was exposed. A pneumatic impactor (diameter: 2.0 mm; available from Air-Power, Inc.) discharged at 6.8±0.2 m/s with a head displacement of 3 mm was used to deliver a single midline impact to the disc surface.
# An experimental procedure for measuring neurological deficits was developed. An automated rotorod (available from Ugo Basile North America, Inc.) was used to assess vestibulomotor function. On the day before experimental induction of a neurological condition or injury (such as, for example, traumatic brain injury or intracerebral hemorrhage as described above), mice under went two consecutive conditioning trials at a set rotational speed (16 revolutions per minute) for 60 seconds followed by three additional trials with an accelerating rotational speed. The average time to fall from the rotating cylinder in the latter three trials was recorded as baseline latency. After injury, mice under went consecutive daily testing with three trials of accelerating rotational speed (intertribal interval of 15 minutes). Average latency to fall from the rod was recorded, and mice unable to grip the rod were scored with a latency of 0 seconds.
# Groups of mice received either an ApoE mimetic peptide (SEQ ID NO:3; 0.05 mg/kg or 0.2 mg/kg) or carrier (saline) by intravenous tail vein injection at 2 hours and again at 6 hours after traumatic brain injury induced as described in Example 3. Each mouse was tested for vestibulomotor function by rotorod latency measured before and after injury, as described in Example 3.
# Groups of mice received either an ApoE mimetic peptide (SEQ ID NO:4; 0.05 mg/kg) or carrier (saline) by intravenous tail vein injection at 2 hours and again at 6 hours after traumatic brain injury induced as described in Example 3. Each mouse was tested for vestibulomotor function by rotorod latency measured before and after injury, as described in Example 3. […]
Substance,"percentage decrease in LDH, 24 hours after exposure to NMDA compared to vehicle treated cultures ([1]; peptide 1 μM) [%]","suppression of LDH release, cumulative data (class) ([1]; peptide 1 μM)",other results
Ac-VSRKR-NH2 [VR-52],12.63,+++ (greater than 20% suppression),–
"Ac-ASHLRKLRKRLL-NH2 [AL-10-1, reference compound]",−6.21,0 (less than 5% suppression),–
Ac-RHKKL-NH2 [RL-5-1],−2.85,++ (11-20% suppression),–
"Ac-LRVRLASLLRKL-NH2 [VL-17-9, longer peptide (12 amino acids) used as positive control, reference compound]",30.95,+++ (greater than 20% suppression),"reduced LDH release [1]: 31%; percentage decrease in LDH, 24 hours after exposure to NMDA compared to vehicle treated cultures ([1]; peptide 0.1 μM): 16.19%"
Ac-VARKL-NH2 [VL-5-1],24.48,+++ (greater than 20% suppression),"percentage decrease in LDH, 24 hours after exposure to NMDA compared to vehicle treated cultures ([1]; peptide 0.1 μM): 18.57%; percentage decrease in LDH, 24 hours after exposure to NMDA compared to vehicle treated cultures ([1]; peptide 0.3 μM): 0.29%; release of inflammatory cytokine TNF-α [2]: inhibition of microglial TNF-α secretion; also recorded: suppress the release of inflammatory cytokine TNF-α"
Ac-VARKL-NH2 [VL-5-2],34.26,+++ (greater than 20% suppression),reduced LDH release [1]: 31%
Ac-RARRL-NH2 [RL-5-2],−5.23,0 (less than 5% suppression),–
Ac-RHKRR-NH2 [RR-5-1],7.50,+ (5-10% suppression),–
Ac-RSKRR-NH2 [RR-5-2],0.08,0 (less than 5% suppression),–
Ac-RSKKL-NH2 [RL-5-3],−20.80,0 (less than 5% suppression),–
Ac-VSKRR-NH2 [VR-53],7.03,+ (5-10% suppression),"TNF-α production relative to untreated cells or negative control peptide [3]: inhibition of microglial TNF-α secretion; also recorded: decreased TNF-α production; durability of effect on rotorod latency [4]: durable through the five-day testing period; vestibulomotor performance (rotorod latency) compared to carrier ([4]; FIG. 2, listed as SEQ ID NO:3): significantly improved vestibulomotor performance"
Ac-VARRL-NH2 [VL-5-3],11.50,++ (11-20% suppression),"percentage decrease in LDH, 24 hours after exposure to NMDA compared to vehicle treated cultures ([1]; peptide 0.1 μM): −19.04%; percentage decrease in LDH, 24 hours after exposure to NMDA compared to vehicle treated cultures ([1]; peptide 0.3 μM): −16.70%; release of inflammatory cytokine TNF-α [2]: inhibition of microglial TNF-α secretion; also recorded: suppress the release of inflammatory cytokine TNF-α"
"Ac-VSKKR-NH2 [VR-54, negative control peptide, reference compound]",−15.91,++ (11-20% suppression),–
